# From patent US4167580A, “Compositions and method of use to treat arthritic disease with m-fluorobenzimidoylacetonitrile” (American Cyanamid Company, priority 1978, dated 1979)
# What was measured:
# [1] = test system: Carrageenin Induced Edema of the Rat Paw; test: Carrageenin induced edema of the rat paw (acute anti-inflammatory activity); assay type: in vivo, Royal Hart, Wistar strain rats; conditions: 250 mg./kg. by gavage, 5 hours after drug (4 hours after carrageenin)
# Procedure: In determining the acute anti-inflammatory activity of benzimidoylacetonitrile, Royal Hart, Wistar strain rats ranging in weight from 80 to 90 grams were used. The rats were fasted overnight prior to dosing but had free access to water. The compound was administered in aqueous suspension, by gavage, in a volume of 1.7 ml. per 50 grams of rat [corresponds by hydration volume used by Winter et al., Proc. Soc. […] The phlogistic agent used was carrageenin prepared as a sterile 1% suspension in 0.9% aqueous sodium chloride for routine testing. A volume of 0.05 ml. was injected through a 26 gauge needle into the planter tissue of the right hind paw. Measurements were made 5 hours after drug administration (4 hours after carrageenin challenge). Volumes of both the normal and carrageenin inflamed feet were determined. The difference between the two measurements is considered to be the increased edema due to the carrageenin administration.
# [2] = test system: Body Temperature of Pyretic Rats; test: Body temperature in yeast induced pyrexia; assay type: in vivo, Royal Hart, Wistar strain rats; conditions: 250 mg./kg. by gavage 17 hours after yeast; measured 19 hours post challenge
# Procedure: The effect of benzimidoylacetonitrile on body temperature in yeast induced pyrexia was determined by the following procedure. Groups of three Royal Hart, Wistar strain rats weighing 80±5 grams were injected subcutaneously in the nape of the neck with 0.6 ml. of a 40% suspension of dried brewers yeast in distilled water. […] At 19 hours post challenge the rectal temperature of each rat was measured with an electric thermometer. Each dose response experiment was replicated one or more times.
# [3] = test system: Adjuvant Arthritis in Rats; test: Adjuvant induced arthritis in rats (chronic inflammation with joint destruction); assay type: in vivo, Royal Hart, Wistar strain rats; conditions: once daily days 0-13
# Text: Adjuvant induced experimental polyarthritis is a specific systemic disease of the rat which shares interesting similarities with rheumatoid arthritis. Specifically, the histology of the two diseases bears a remarkable resemblance as shown by C. M. Pearson et al., Am. J. Pathol. 42, 73 (1963). E. M. Glenn, Am. J. Vet. Res. 27 (116), 339 (1966) has classified adjuvant induced polyarthritis as a crippling and permanent deformity resulting from diffuse connective tissue involvement around certain susceptible joints in the rat. Zahiri et al., Can. Med. Ass. J. 101, 269 (1969) have shown that the fusiform swelling of the distal joints is associated with edema, congestion and synovitis including pannus formation, all of which precede the ultimate destruction of bone and cartilage. Furthermore, Zahiri et al. indicate that the cartilage destruction in the joint is due to an invasive pannus which originates in the marginal synovium and extends across the articular surface to erode it. […] See S. Wong et al., J. Pharm. & Exptl. Ther. 185, 127 (1973) and G. R. Bobalick et al., Agents & Actions 4, 364 (1974). In a similar manner, inhibition of the progress of arthritis in paws of rats treated with the compounds of this invention also lessens associated joint deterioration.
# Groups of three Royal Hart, Wistar strain rats weighing 200±10 grams each were injected intradermally in the right hind paw with Freund's adjuvant (dried human tubercle bacilli in a mineral oil vehicle) at a dose of 2 mg./kg. of body weight. Test compounds were administered orally in a 1.5% staruh vehicle at various doses once daily on days 0 through 13 post challenge. Control rats were treated in a similar manner, but given only starch vehicle. On the 14th and 21st day post challenge the diameter of the injected paw (primary lesion) was measured by micrometer caliper. The volume of inflamed paws were estimated from these measurements and the results are expressed as percent inhibition of swelling as compared to controls. At the same time, the other inflamed sites, such as ears, paws and tail (secondary lesions) were observed and each rat was graded as to degree of inflammation and swelling present. The grading is based on a scale of 0 to 24, where 0 represents a complete absence of induced arthritic nodules and 24 represents the maximum degree of inflammation. The mean grade for each treated group is calculated and the effects of each compound are expressed as percent inhibition of the control grade. Table III records the results of these tests conducted with benzimidoylacetonitrile, m-fluorobenzimidoylacetonitrile and p-fluorobenzimidoylacetonitrile and known anti-inflammatory agents. The active compounds of the present invention suppress the progression of the arthritis and associated joint deterioration. Of particular interest is the low mortality observed with benzimidoylacetonitrile treated rats relative to either controls or rats treated with standard compounds.
# [4] = test system: Erythema in Guinea Pigs; test: Ultraviolet induced erythema in guinea pigs, topical application; assay type: in vivo, Albino guinea pigs; conditions: 1% in ethyl alcohol
# Procedure: Albino guinea pigs were depilitated on their flanks, the evening before testing, with a standard mixture of barium sulfide and gum acacia. On the morning of the test at 0 hour they were restrained in a plastic container which allows exposure of 3 circular spots. They were then exposed to ultraviolet irradiation from a "Hanovia" Kromayer lamp, model 10, for 60 seconds. Immediately after exposure to ultraviolet light, the guinea pigs were treated by dissolving the test compound in ethyl alcohol at various concentrations and swabbing the UV exposed areas with the aid of a cottom tipped applicator stick. At one and four hours, the degree of erythema for each of the three sites was assessed according to the following scoring system: 0=no erythema, 0.5=incomplete circle or faint erythema and 1.0=complete circle of distinct erythema. Thus, the maximum score for each animal was 3.0.
smiles,measurement,setting,value
CCCCC1C(=O)N(c2ccccc2)N(c2ccccc2)C1=O [Phenylbutazone],C/T Edema Ratio (edema of control animals/edema of treated animals),[1],2.3
same,Decrease In Body Temp.,[2],1.5 °C
same,"% Inhibition of Control Grade (secondary lesion), Day 14",[3]; 18.8 mg./kg. oral,4%
same,"% Inhibition of Control Grade (secondary lesion), Day 21",[3]; 18.8 mg./kg. oral,8%
same,"% Inhibition of Swelling (primary lesion), Day 14",[3]; 18.8 mg./kg. oral,31%
same,"% Inhibition of Swelling (primary lesion), Day 21",[3]; 18.8 mg./kg. oral,7%
same,Dead/Treated At 21 Days,[3]; 18.8 mg./kg. oral,2/21
same,"Mean Weight Gain, Day 14",[3]; 18.8 mg./kg. oral,50 grams
same,"Mean Weight Gain, Day 21",[3]; 18.8 mg./kg. oral,45 grams
same,"% Inhibition of Control Grade (secondary lesion), Day 14",[3]; 37.5 mg./kg. oral,18%
same,"% Inhibition of Control Grade (secondary lesion), Day 21",[3]; 37.5 mg./kg. oral,13%
same,"% Inhibition of Swelling (primary lesion), Day 14",[3]; 37.5 mg./kg. oral,56%
same,"% Inhibition of Swelling (primary lesion), Day 21",[3]; 37.5 mg./kg. oral,14%
same,Dead/Treated At 21 Days,[3]; 37.5 mg./kg. oral,5/39
same,"Mean Weight Gain, Day 14",[3]; 37.5 mg./kg. oral,53 grams
same,"Mean Weight Gain, Day 21",[3]; 37.5 mg./kg. oral,53 grams
same,"% Inhibition of Control Grade (secondary lesion), Day 14",[3]; 75 mg./kg. oral,27%
same,"% Inhibition of Control Grade (secondary lesion), Day 21",[3]; 75 mg./kg. oral,15%
same,"% Inhibition of Swelling (primary lesion), Day 14",[3]; 75 mg./kg. oral,62%
same,"% Inhibition of Swelling (primary lesion), Day 21",[3]; 75 mg./kg. oral,28%
same,Dead/Treated At 21 Days,[3]; 75 mg./kg. oral,2/39
same,"Mean Weight Gain, Day 14",[3]; 75 mg./kg. oral,51 grams
same,"Mean Weight Gain, Day 21",[3]; 75 mg./kg. oral,50 grams
same,"% Inhibition of Control Grade (secondary lesion), Day 14",[3]; 150 mg./kg. oral,54%
same,"% Inhibition of Control Grade (secondary lesion), Day 21",[3]; 150 mg./kg. oral,31%
same,"% Inhibition of Swelling (primary lesion), Day 14",[3]; 150 mg./kg. oral,75%
same,"% Inhibition of Swelling (primary lesion), Day 21",[3]; 150 mg./kg. oral,44%
same,Dead/Treated At 21 Days,[3]; 150 mg./kg. oral,2/27
same,"Mean Weight Gain, Day 14",[3]; 150 mg./kg. oral,40 grams
same,"Mean Weight Gain, Day 21",[3]; 150 mg./kg. oral,50 grams
same,Erythema Score (Avg.) 1 Hr.,"[4]; 1 hour, maximum score 3.0, ethyl alcohol control 2.5",0.5
same,Erythema Score (Avg.) 4 Hr.,"[4]; 4 hours, maximum score 3.0, ethyl alcohol control 3.0",2.4
"N#CCC(=N)c1cccc(F)c1 [m-Fluorobenzimidoylacetonitrile, m-fluorobenzimidoylacetonitrile]","% Inhibition of Swelling (primary lesion), Day 14",[3]; 50 mg./kg. oral,40%
same,"% Inhibition of Swelling (primary lesion), Day 21",[3]; 50 mg./kg. oral,7%
same,Dead/Treated At 21 Days,[3]; 50 mg./kg. oral,1/18
same,"Mean Weight Gain, Day 14",[3]; 50 mg./kg. oral,64 grams
same,"Mean Weight Gain, Day 21",[3]; 50 mg./kg. oral,60 grams
"N#CCC(=N)c1ccc(F)cc1 [p-Fluorobenzimidoylacetonitrile, p-fluorobenzimidoylacetonitrile]","% Inhibition of Control Grade (secondary lesion), Day 14",[3]; 25 mg./kg. oral,14%
same,"% Inhibition of Control Grade (secondary lesion), Day 21",[3]; 25 mg./kg. oral,9%
same,"% Inhibition of Swelling (primary lesion), Day 14",[3]; 25 mg./kg. oral,26%
same,"% Inhibition of Swelling (primary lesion), Day 21",[3]; 25 mg./kg. oral,14%
same,Dead/Treated At 21 Days,[3]; 25 mg./kg. oral,2/18
same,"Mean Weight Gain, Day 14",[3]; 25 mg./kg. oral,53 grams
same,"Mean Weight Gain, Day 21",[3]; 25 mg./kg. oral,50 grams
same,"% Inhibition of Control Grade (secondary lesion), Day 14",[3]; 50 mg./kg. oral,27%
same,"% Inhibition of Control Grade (secondary lesion), Day 21",[3]; 50 mg./kg. oral,8%
same,"% Inhibition of Swelling (primary lesion), Day 14",[3]; 50 mg./kg. oral,43%
same,"% Inhibition of Swelling (primary lesion), Day 21",[3]; 50 mg./kg. oral,25%
same,Dead/Treated At 21 Days,[3]; 50 mg./kg. oral,4/36
same,"Mean Weight Gain, Day 14",[3]; 50 mg./kg. oral,66 grams
same,"Mean Weight Gain, Day 21",[3]; 50 mg./kg. oral,57 grams
same,"% Inhibition of Control Grade (secondary lesion), Day 14",[3]; 100 mg./kg. oral,49%
same,"% Inhibition of Control Grade (secondary lesion), Day 21",[3]; 100 mg./kg. oral,22%
same,"% Inhibition of Swelling (primary lesion), Day 14",[3]; 100 mg./kg. oral,53%
same,"% Inhibition of Swelling (primary lesion), Day 21",[3]; 100 mg./kg. oral,29%
same,Dead/Treated At 21 Days,[3]; 100 mg./kg. oral,1/18
same,"Mean Weight Gain, Day 14",[3]; 100 mg./kg. oral,78 grams
same,"Mean Weight Gain, Day 21",[3]; 100 mg./kg. oral,67 grams
